Experimental data: PubChem BioAssay AID504313 (Emory University Molecular Libraries Screening Center, 2011)
The source made the active and inactive calls. The rule behind the calls is not given here.

molecular target: X-box-binding protein 1 (Homo sapiens) (UniProt P17861); test: inhibitors of XBP1 reporter signal, dose response, counter-screen, cell-based (AID 504313); conditions: XBP1 reporter cell assay, percent of control;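 note: CHO cells carrying an XBP1 reporter stimulated with tunicamycin; potency is for inhibition of the tunicamycin-induced reporter signal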

Compound	IC50
CC1=Nc2nc(N3CCCCC3)c(C#N)c3c4c(nc(c23)N1)N(c1ccc(C(C)C)cc1)C(=O)C4	inactive
O=C(Nc1cc(N2CCOCC2)ncn1)NC1(C(F)(F)F)Oc2ccc(Cl)cc2O1 (stereo unspecified)	> 10 µM (inactive)
Cc1cccc(N2CCN(C(=O)c3c(C)nn(Cc4ccccc4Cl)c3C)CC2)c1C	> 10 µM (inactive)
CCOc1cc(/C=N/NC(=O)Cc2ccc(C(F)(F)F)cc2[N+](=O)[O-])c(Br)cc1OC	inactive
CCOc1cc(NC(=O)CCl)c(OCC)cc1NC(=O)CCl	> 10 µM (inactive)
O=C1C(Nc2ccccc2)=C/C(=N/S(=O)(=O)c2cccs2)c2ccccc21	1.17 µM
Cc1nn(Cc2c(Cl)cccc2Cl)c(C)c1NC(=O)c1cn(-c2ccccc2)nc1-c1ccccc1	inactive
COC(=O)c1ccc2c(=O)n(CCCCCC(=O)N3CCN(c4ccccc4)CC3)c(=O)[nH]c2c1	> 10 µM (inactive)
C=C1C(=O)O[C@H]2C[C@@H](C)[C@@H]3C=CC(=O)[C@@]3(C)C[C@H]12	inactive
Nc1cc(Cl)c2nonc2c1[N+](=O)[O-]	inactive
Cc1cccc(OCc2n(CC(=O)OC3CC(C)CCC3C(C)C)c3ccccc3[n+]2C)c1 (stereo unspecified)	> 10 µM (inactive)
Cc1ccc(-c2nnc(-c3ccc(NC(=O)Cc4cccs4)cc3)o2)cc1	> 10 µM (inactive)
CCCCCCCCCCCCCCCC[n+]1cccc(C(=O)N(CC)CC)c1	inactive
C=C(C)COc1ccc(-c2[nH]ncc2Oc2ccccc2OCC)c(O)c1	inactive
O=C(CCl)N(c1ccc(Cl)cc1)c1c[nH]c2ccccc12	inactive
CCN1/C(=C/c2ccc3cc(C)ccc3[n+]2C)Sc2ccc3sccc3c21	2.28 µM
O=C(Nc1ccc(C(O)(C(F)(F)F)C(F)(F)F)cc1)c1ccc(Cl)c([N+](=O)[O-])c1	inactive
O=C1C=CC(=O)N1CCCCCCN1C(=O)C=CC1=O	inactive
C=C1C(=O)C=C2CN(C(=O)c3ccccc3)[C@@](Cc3ccc(F)cc3)(C(=O)OC)[C@@H]12	1.03 µM
CCOc1cc(C(=O)CSc2nnc(CNc3ccc(Cl)cc3)o2)ccc1NC(=O)CC	inactive
CCCCNS(=O)(=O)c1ccc2nc(-c3cccnc3)cc(C(=O)NC3CCCC3)c2c1	> 10 µM (inactive)
CCOC(=O)C1=C(O)/C(=C/c2ccc(CNC(=O)C(=O)Nc3ccc(C)cc3)o2)N=C1C	> 10 µM (inactive)
FC(F)(F)c1cc(-c2cccs2)nc(-n2cc(Br)cn2)n1	> 10 µM (inactive)
CS(=O)(=O)c1nc(-c2ccco2)cc(C(F)(F)F)n1	inactive

Compound	IC50
C=C(C)COc1ccc(-c2n[nH]c(C)c2-c2ccccc2OC)c(O)c1	> 10 µM (inactive)
CCN(CC)S(=O)(=O)c1cccc(NC(=O)Nc2cccc(C(F)(F)F)c2)c1	inactive
O=Nc1ccc(O)c2ncccc12	5.08 µM
Oc1ccc(Br)cc1-c1cc(-c2ccccc2F)[nH]n1	> 10 µM (inactive)
Cc1cccc(N=Nc2c(N)n[nH]c2-c2ccc(Cl)cc2)c1	> 10 µM (inactive)
O=C1C(C2=NC(c3ccccn3)C3C(=O)N(c4ccc(Cl)cc4Cl)C(=O)C23)=C(O)c2ccccc21 (stereo unspecified)	inactive
O=S(=O)(/C(=C/c1ccc(C(F)(F)F)cc1)c1nc2ccccc2[nH]1)c1ccccc1	2.22 µM
Cc1ccc(Cn2c(SCC(=O)Nc3cc(C)on3)nc3ccccc3c2=O)cc1	> 10 µM (inactive)
CCOc1ccc(C2C=C(c3ccc(C)cc3)Nc3nnnn32)cc1 (stereo unspecified)	> 10 µM (inactive)
CC(C)(C)c1ccc(OCC(=O)N/N=C/C2CC=CCC2)cc1 (stereo unspecified)	inactive
N#Cc1nccnc1S(=O)(=O)c1cccs1	inactive
CC1=CC2/C=C(\C)CCC(O)C(O)/C=C/C(=O)C23C(=O)NC(CC(C)C)C3C1C (stereo unspecified)	inactive
O=C(/C=C/c1cccc(C(F)(F)F)c1)Nc1cccc(C(F)(F)F)c1	inactive
CC(C)(C)c1ccc(C(=O)NNC(=O)c2cccc(Br)c2)cc1	> 10 µM (inactive)
CCN1/C(=C\C=C\C2=[N+](CC)c3ccccc3C2(C)C)C(C)(C)c2ccccc21	< 0.16 µM
O=C(CCl)N(Cc1cccc([N+](=O)[O-])c1)c1cccc(Cl)c1	inactive
Cc1cc(C(=O)N/N=C/c2ccc(-c3cccc(Cl)c3Cl)o2)n[nH]1	> 10 µM (inactive)
CCc1ccc(OCc2n[nH]c(=S)n2C(C)CCCC(C)C)cc1 (stereo unspecified)	inactive
Cc1ccc(NC(=O)c2nc[nH]c2C(=O)N[C@@H](C)C(=O)OC(C)(C)C)cc1	4.14 µM
O=C(Nc1ccccc1-c1nc2ccccc2[nH]1)c1sc2ccccc2c1Cl	> 10 µM (inactive)
CCOC(=O)c1ccc(NC(=O)c2nc[nH]c2C(=O)N[C@@H](C)C(=O)OC(C)(C)C)cc1	inactive
CCCCCCn1c(=O)c(C(=O)Nc2cnccn2)c(O)c2ccccc21	1.8 µM
COc1ccc(-c2cc(C3CCN(Cc4cccc(C(F)(F)F)c4)CC3)[nH]n2)cc1	inactive
Nc1nnnn1/N=C/C(Br)=C/c1ccccc1	> 10 µM (inactive)

Compound	IC50
CCC(C)[C@@H](NC(=O)OC(C)(C)C)c1nnc(S(=O)(=O)Cc2cccc(C)c2)o1 (stereo partly specified)	4.55 µM
CCOC(=O)C1=C(c2ccc(OC)cc2)C(=O)c2ccccc2C1=O	inactive
COc1cc2c(cc1OC)C(c1ccccc1)N(C(=O)CCl)CC2 (stereo unspecified)	inactive
Cc1cccc(C)c1NC(=O)COc1ccccc1C(=O)Nc1ccc(Br)cn1	> 10 µM (inactive)
Cc1ccc2nc(NC(=O)CSCC(=O)OCC(=O)c3ccc(Br)cc3)sc2c1	3.51 µM
COc1c(CC=C(C)C)cc(C2CC(=O)c3c(O)cc(O)cc3O2)cc1CC=C(C)C (stereo unspecified)	inactive
Oc1ccc(Oc2ccc3c(C(F)(F)F)cc(C(F)(F)F)nc3n2)cc1	> 10 µM (inactive)
N#CC1=C(N)N2C(=C(C#N)C1c1ccc(Br)cc1)Nc1ccccc12 (stereo unspecified)	inactive
O=S1(=O)C=C(Sc2nc3ccccc3s2)c2ccccc21	2.74 µM
CC(C)CC(NC(=O)c1ccc(Cl)cc1)C(=O)OCC(=O)c1ccc2c(c1)NC(=O)CO2 (stereo unspecified)	inactive
CS(=O)(=O)c1ccc(S(=O)CC(=O)OCc2ccccc2)c([N+](=O)[O-])c1 (stereo unspecified)	inactive
CC(C)(C)c1ccc(O)c(N=Cc2cc(Br)ccc2O)c1	inactive
O=C1C(C2=NC(c3ccccn3)C3C(=O)N(c4ccc(OC(F)(F)F)cc4)C(=O)C23)=C(O)c2ccccc21 (stereo unspecified)	inactive
O=C(NCc1nc(-c2ccc(C(F)(F)F)cc2)no1)Nc1cc(Cl)cc(Cl)c1	inactive
Cc1cc(C(C)(C)C)oc1C(=O)N1CCN(C(=O)c2oc(C(C)(C)C)cc2C)CC1	> 10 µM (inactive)
Cc1cccc(NS(=O)(=O)c2ccc(C3CCCCC3)cc2)c1	4.03 µM
CCc1ccc(/C=c2\s/c(=C\C(=O)C(C)(C)C)[nH]c2=O)cc1	inactive
Cc1nc(NC(=O)CSc2nc3cccnc3n2Cc2ccccc2)sc1C	> 10 µM (inactive)
O=S1(=O)C=C(Sc2nc3cc(Cl)ccc3o2)c2ccccc21	4.42 µM
Cc1ccc(N=Cc2cc3c(cc2O)OC(N)=C(C#N)C3c2ccccc2)cc1 (stereo unspecified)	> 10 µM (inactive)
O=C1c2ccccc2C(=O)C1c1nccc2ccccc12	inactive
Cc1ccc(/C=N/NC(=O)CCCOc2ccc(Cl)cc2Cl)cc1	> 10 µM (inactive)
Cc1ccc(C(C)C)c(OCC(=O)N/N=C/C2CCCCC2)c1	inactive
